Numbers after ± are expanded uncertainties.
Assay: xn = mol fraction of the nth substance listed
Conditions: 101 kPa, Liquid, Vibrating tube method

CCCC[N+]1(C)CCCC1.O=S(=O)([N-]S(=O)(=O)C(F)(F)F)C(F)(F)F + CNC=O
mass density [kg/m3]
Conditions | 293.15 K | 298.15 K | 303.15 K | 308.15 K | 313.15 K | 318.15 K | 323.15 K
x1 = 0.0246 | 1055.01 ± 0.28 | 1050.43 ± 0.28 | 1045.86 ± 0.28 | 1041.32 ± 0.27 | 1036.71 ± 0.27 | 1032 ± 0.27 | 1027.24 ± 0.26
x1 = 0.0444 | 1087.36 ± 0.31 | 1082.72 ± 0.3 | 1078.08 ± 0.3 | 1073.48 ± 0.3 | 1068.79 ± 0.29 | 1064.04 ± 0.29 | 1059.25 ± 0.3
x1 = 0.0743 | 1124.18 ± 0.34 | 1119.6 ± 0.33 | 1114.93 ± 0.33 | 1110.11 ± 0.33 | 1105.37 ± 0.32 | 1100.74 ± 0.32 | 1095.89 ± 0.33
x1 = 0.1571 | 1192.03 ± 0.4 | 1187.22 ± 0.4 | 1182.56 ± 0.4 | 1177.83 ± 0.39 | 1173.12 ± 0.39 | 1168.24 ± 0.39 | 1163.34 ± 0.39
x1 = 0.2195 | 1227.49 ± 0.43 | 1222.75 ± 0.43 | 1218 ± 0.43 | 1213.28 ± 0.42 | 1208.51 ± 0.42 | 1203.7 ± 0.42 | 1198.78 ± 0.41
x1 = 0.2768 | 1253.4 ± 0.45 | 1248.66 ± 0.45 | 1243.85 ± 0.45 | 1239.09 ± 0.44 | 1234.35 ± 0.44 | 1229.57 ± 0.44 | 1224.76 ± 0.43
x1 = 0.3721 | 1288.07 ± 0.49 | 1283.27 ± 0.48 | 1278.56 ± 0.48 | 1273.79 ± 0.48 | 1269.04 ± 0.47 | 1264.27 ± 0.47 | 1259.52 ± 0.47
x1 = 0.4755 | 1318.98 ± 0.51 | 1314.25 ± 0.51 | 1309.5 ± 0.51 | 1304.78 ± 0.5 | 1300.03 ± 0.5 | 1295.32 ± 0.5 | 1290.63 ± 0.49
x1 = 0.588 | 1344.35 ± 0.53 | 1339.65 ± 0.53 | 1334.96 ± 0.52 | 1330.34 ± 0.52 | 1325.69 ± 0.52 | 1320.95 ± 0.51 | 1316.2 ± 0.51
x1 = 0.631 | 1352.66 ± 0.54 | 1347.99 ± 0.53 | 1343.33 ± 0.53 | 1338.74 ± 0.52 | 1334.09 ± 0.52 | 1329.42 ± 0.52 | 1324.65 ± 0.51
x1 = 0.7045 | 1364.77 ± 0.54 | 1360 ± 0.54 | 1355.4 ± 0.54 | 1350.82 ± 0.53 | 1346.19 ± 0.53 | 1341.54 ± 0.52 | 1336.77 ± 0.52
x1 = 0.7807 | 1375.58 ± 0.55 | 1370.92 ± 0.55 | 1366.37 ± 0.55 | 1361.76 ± 0.54 | 1357.23 ± 0.54 | 1352.53 ± 0.53 | 1347.89 ± 0.53
x1 = 0.9067 | 1390.15 ± 0.57 | 1385.5 ± 0.56 | 1380.94 ± 0.56 | 1376.4 ± 0.55 | 1371.81 ± 0.55 | 1367.24 ± 0.55 | 1362.53 ± 0.54

Source: the NIST ThermoML archive (doi:10.1021/je300941v)
